Reference: PMC7327383, “The affinity and selectivity of α‐adrenoceptor antagonists, antidepressants, and antipsychotics for the human α1A, α1B, and α1D‐adrenoceptors” (Pharmacology Research & Perspectives, 2020)
Read-outs that look alike come from different tables or passages of the source.

Experiments:
[1] = target: T1, human α1B-adrenoceptor (Homo sapiens, UniProt P35368); test: [3H]prazosin whole-cell competition binding, CHO-α1B cells; details: for Selectivity ratio α1B vs α1D: ratio of KD values, higher α1B affinity, 1.0 under vs = none
T1 construct: CHO cells stably expressing either the full‐length human α1A, α1B, or α1D‐adrenoceptor
T1 sequence (P35368 1-520): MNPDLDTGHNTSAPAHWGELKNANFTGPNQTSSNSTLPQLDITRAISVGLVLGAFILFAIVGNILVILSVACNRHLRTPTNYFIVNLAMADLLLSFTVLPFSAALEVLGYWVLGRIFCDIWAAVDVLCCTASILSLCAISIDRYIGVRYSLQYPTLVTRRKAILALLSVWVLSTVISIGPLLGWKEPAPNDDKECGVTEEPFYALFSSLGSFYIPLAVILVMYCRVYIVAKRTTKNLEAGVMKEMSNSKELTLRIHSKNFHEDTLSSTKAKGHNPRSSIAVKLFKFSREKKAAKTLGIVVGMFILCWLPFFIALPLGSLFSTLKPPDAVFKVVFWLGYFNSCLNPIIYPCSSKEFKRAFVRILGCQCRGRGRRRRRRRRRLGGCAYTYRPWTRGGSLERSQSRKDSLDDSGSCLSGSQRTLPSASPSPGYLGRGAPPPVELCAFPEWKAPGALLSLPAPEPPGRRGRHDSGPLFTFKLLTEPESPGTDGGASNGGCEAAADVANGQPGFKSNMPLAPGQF

[2] = target: T2, human α1A-adrenoceptor (Homo sapiens, UniProt P35348); test: [3H]prazosin whole-cell competition binding, CHO-α1A cells
T2 construct: CHO cells stably expressing either the full‐length human α1A, α1B, or α1D‐adrenoceptor
T2 sequence (P35348 1-466): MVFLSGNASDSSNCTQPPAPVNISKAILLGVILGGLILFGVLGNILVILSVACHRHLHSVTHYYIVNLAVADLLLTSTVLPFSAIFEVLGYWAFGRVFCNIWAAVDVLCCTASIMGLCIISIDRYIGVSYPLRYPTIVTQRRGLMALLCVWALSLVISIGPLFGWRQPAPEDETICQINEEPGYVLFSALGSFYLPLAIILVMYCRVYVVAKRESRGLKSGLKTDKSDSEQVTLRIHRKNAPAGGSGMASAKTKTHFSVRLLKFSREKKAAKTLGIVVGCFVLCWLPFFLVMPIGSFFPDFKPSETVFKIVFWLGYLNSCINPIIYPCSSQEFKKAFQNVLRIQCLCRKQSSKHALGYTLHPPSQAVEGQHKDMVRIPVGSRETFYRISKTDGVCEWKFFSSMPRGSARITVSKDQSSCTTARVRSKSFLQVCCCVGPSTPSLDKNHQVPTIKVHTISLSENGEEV

[3] = target: T3, full-length human α1D-adrenoceptor (Homo sapiens, UniProt P25100); test: [3H]prazosin whole-cell competition binding, CHO-α1D cells; details: for Log KD α1D site 2: low-affinity component of two-component curve
T3 sequence (P25100 1-572): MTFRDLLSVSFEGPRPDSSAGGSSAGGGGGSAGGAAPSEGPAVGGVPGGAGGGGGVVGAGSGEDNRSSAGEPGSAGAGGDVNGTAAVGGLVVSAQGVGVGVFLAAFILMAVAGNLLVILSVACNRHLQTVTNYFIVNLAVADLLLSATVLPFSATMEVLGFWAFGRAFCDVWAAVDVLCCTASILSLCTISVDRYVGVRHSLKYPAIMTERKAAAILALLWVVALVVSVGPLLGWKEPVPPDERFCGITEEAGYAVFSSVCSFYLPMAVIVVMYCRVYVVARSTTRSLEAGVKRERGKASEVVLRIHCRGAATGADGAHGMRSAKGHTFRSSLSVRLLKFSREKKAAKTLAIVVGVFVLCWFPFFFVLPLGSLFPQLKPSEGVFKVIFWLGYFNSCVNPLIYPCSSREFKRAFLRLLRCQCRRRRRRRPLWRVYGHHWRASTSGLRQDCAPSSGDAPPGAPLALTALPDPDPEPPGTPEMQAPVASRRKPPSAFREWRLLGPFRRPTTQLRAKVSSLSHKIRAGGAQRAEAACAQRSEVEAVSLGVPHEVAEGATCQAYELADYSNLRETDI

[4] = ratio, 1 = no selectivity for a subtype over another
[5] = single-component inhibition curve, given as log KD (negative), mean ± SE mean
[6] = ratio of KD values, printed under α1A = higher α1A affinity, 1.0 under vs = none
[7] = ratio of KD values, higher α1D affinity (site 1 KD)
[8] = ratio of KD values, higher α1A affinity, 1.0 under vs = none
[9] = subtype not given, ligands with α1A selectivity (Table 1: α1A), read-out: affinity
[10] = percentage of inhibition through first component, control
[11] = two-component inhibition curve, proportion of site 1
[12] = log KD from 3H-prazosin whole cell binding, CHO cells, mean ± s.e.mean
[13] = app: top concentration inhibited most but not all specific binding, curve extrapolated
[14] = single-component inhibition curve, given as log KD (negative), mean ± SE mean, read-out: Log KD α1B (converted)
[15] = single-component inhibition curve, given as log KD (negative), mean ± SE mean, read-out: Log KD α1A (converted)
[16] = Log KD α1D, single-component inhibition curve, given as log KD (negative), mean ± SE mean

## CCS(=O)(=O)N1CCC[C@@H]2CN3CCc4cc(OC)ccc4[C@@H]3C[C@@H]21 [RS79948]
[1]; [4]
  selectivity α1B vs α1D: 12
[1]; [5]
  Log KD α1B: −4.99 ± 0.05
[2]; [6]
  Selectivity ratio α1A vs α1B: 5.8 fold
[2]; [4]
  selectivity α1A vs 1D: 2.1
[2]; [5]
  Log KD α1A: −5.75 ± 0.05
[3]; [7]
  Selectivity ratio α1A vs α1D: 2.1 fold
  Selectivity ratio α1B vs α1D: 12 fold
[3]; [5]
  Log KD α1D: −6.07 ± 0.11

## Cc1c[nH]c(=O)n(CCCN2CCN(c3ccccc3OCC(F)(F)F)CC2)c1=O [RS100329]
[1]; [4]
  selectivity α1B vs α1D: 9.1
[1]; [5]
  Log KD α1B: −6.67 ± 0.07
[2]; [8]
  Selectivity ratio α1A vs α1D: 93 fold
[2]; [6]
  Selectivity ratio α1A vs α1B: 851 fold
[2]; [5]
  Log KD α1A: −9.60 ± 0.05
[2]; [9]
  Kd: < 0.25 nM
[3]; high-affinity component of two-component curve, control, used for selectivity
  Log KD α1D site 1: −7.63 ± 0.17
[3]; control
  Log KD α1D site 2: −5.13 ± 0.15
[3]; [10]
  % site 1 α1D: 70.5 ± 3.0% site 1
[3]; [7]
  Selectivity ratio α1B vs α1D: 9.1 fold
[3]; [11]
  % site 1 α1D: -7.63 ± 0.17 -5.13 ± 0.15 70.5 ± 3.0% site 1

## COC1(C2=NCCN2)COc2ccccc2O1 (stereo not drawn) [RX821002]
[1]
  Selectivity ratio α1B vs α1D: 1.4 fold
[1]; [5]
  Log KD α1B: −5.46 ± 0.06
[2]; [8]
  Selectivity ratio α1A vs α1D: 16 fold
[2]; [6]
  Selectivity ratio α1A vs α1B: 11 fold
[2]; [5]
  Log KD α1A: −6.51 ± 0.09
[3]; [5]
  Log KD α1D: −5.31 ± 0.13

## COC1(C2=NCCN2)COc2ccccc2O1 (stereo not drawn) [RX 821002]
[1]; [12]
  Log KD α1B: -5.46 ± 0.06
[1]; [4]
  selectivity α1B vs α1D: 1.4
[2]; [12]
  Log KD α1A: -6.51 ± 0.09
[2]; [4]
  selectivity α1A vs 1D: 16
  selectivity α1A vs α1B: 11
[3]; [12]
  Log KD α1D: -5.31 ± 0.13

## COc1ccc(NC(=O)N2CCc3c2ccc2ccccc32)cc1N1CCN(C)CC1 [S32212]
[1]; [13]
  Log KD α1B (apparent): −4.92 ± 0.02^app
[1]; [4]
  selectivity α1B vs α1D: 5.9
[2]; [8]
  Selectivity ratio α1A vs α1D: 1.6 fold
[2]; [6]
  Selectivity ratio α1A vs α1B: 9.5 fold
[2]; [5]
  Log KD α1A: −5.90 ± 0.06
[3]; [13]
  Log KD α1D (apparent): −5.69 ± 0.13^app
[3]; [7]
  Selectivity ratio α1B vs α1D: 5.9 fold

## CC(C)OC(=O)c1cc2c(OCC(O)CNC(C)(C)C)cccc2[nH]1 (stereo not drawn) [SDZ21009]
[1]; selectivity ratio, 1 = no selectivity for a given receptor subtype over another
  selectivities α1B vs α1D: >12
[1]; top concentration inhibited some but 50% or less of specific binding, printed as log IC50
  Log IC50 α1B: Log IC50 > −4
[2]; [8]
  Selectivity ratio α1A vs α1D: 1.4 fold
[2]; [6]
  Selectivity ratio α1A vs α1B: >17 fold
[2]; [5]
  Log KD α1A: −5.24 ± 0.07
[3]; [7]
  Selectivity ratio α1B vs α1D: >12 fold
[3]; [5]
  Log KD α1D: −5.09 ± 0.18

## CC(C)OC(=O)c1cc2c(OCC(O)CNC(C)(C)C)cccc2[nH]1 (stereo not drawn) [SDZ 21009]
[1]; log IC50 bound
  Log IC50 α1B: Log IC50>-4
[1]; [4]
  selectivity α1B vs α1D: >12
[2]; [12]
  Log KD α1A: -5.24 ± 0.07
[2]; [4]
  selectivity α1A vs 1D: 1.4
  selectivity α1A vs α1B: >17
[3]; [12]
  Log KD α1D: -5.09 ± 0.18

## CN1CCc2cccc(Cl)c2CC1 [SKF86466]
[1]
  Kd: 11700 nM
  selectivity α1B vs α1D: 1.7
[2]
  Kd: 871 nM
  Selectivity ratio α1A vs α1B: 13 fold
  Selectivity ratio α1A vs α1D: 7.9 fold
  selectivity α1A vs α1B: 13.5
[3]
  Kd: 6920 nM
  Selectivity ratio α1B vs α1D: 1.7 fold

## O=C1NCCN1CCN1CCC(c2cn(-c3ccc(F)cc3)c3ccc(Cl)cc23)CC1 [Sertindole]
[1]
  Selectivity ratio α1B vs α1D: 22 fold
[1]; [14]
  Kd: 5.25 nM
[2]; [8]
  Selectivity ratio α1A vs α1D: 219 fold
[2]; [6]
  Selectivity ratio α1A vs α1B: 9.8 fold
[2]; [15]
  Kd: 0.537 nM
[3]; [16]
  Kd: 117 nM

## CN[C@H]1CC[C@@H](c2ccc(Cl)c(Cl)c2)c2ccccc21 [Sertraline]
[1]
  selectivity α1B vs α1D: 1.4
[1]; [14]
  Kd: 3550 nM
[2]
  Selectivity ratio α1A vs α1B: 1.9 fold
  Selectivity ratio α1A vs α1D: 1.3 fold
[2]; [15]
  Kd: 1910 nM
[3]
  Selectivity ratio α1B vs α1D: 1.4 fold
[3]; [16]
  Kd: 2450 nM

## C[C@H](Cc1cc2c(c(C(N)=O)c1)N(CCCO)CC2)NCCOc1ccccc1OCC(F)(F)F [Silodosin]
[1]; [4]
  selectivity α1B vs α1D: 2.8
[1]; [14]
  Kd: 316 nM
[2]; [8]
  Selectivity ratio α1A vs α1D: 468 fold
[2]; [6]
  Selectivity ratio α1A vs α1B: 1288 fold
[2]; [15]
  Kd: 0.245 nM
[2]; [9]
  Kd: < 0.25 nM
[3]; [16]
  Kd: 115 nM
[3]; [7]
  Selectivity ratio α1B vs α1D: 2.8 fold

## O=C1NCN(c2ccccc2)C12CCN(CC1COc3ccccc3O1)CC2 (stereo not drawn) [Spiroxatrine]
[1]; [4]
  selectivity α1B vs α1D: 28
[1]; [14]
  Kd: 389 nM
[2]; [6]
  Selectivity ratio α1A vs α1B: 2.8 fold
[2]; [4]
  selectivity α1A vs 1D: 10
[2]; [15]
  Kd: 138 nM
[3]; Log KD α1D site 1, high-affinity component of two-component curve, control, used for selectivity
  Kd: 13.8 nM
[3]; control
  Log KD α1D site 2: −5.84 ± 0.31
[3]; [10]
  % site 1 α1D: 61.9 ± 4.0% site 1
[3]; [7]
  Selectivity ratio α1A vs α1D: 10 fold
  Selectivity ratio α1B vs α1D: 28 fold
[3]; [11]
  % site 1 α1D: -7.86 ± 0.13 -5.84 ± 0.31 61.9 ± 4.0% site 1

## CCN1CCCC1CNC(=O)c1cc(S(N)(=O)=O)ccc1OC (stereo not drawn) [Sulpiride]
[1]; [4]
  selectivity α1B vs α1D: >4.6
[2]; [8]
  Selectivity ratio α1A vs α1D: 6.9 fold
[2]; [6]
  Selectivity ratio α1A vs α1B: >32 fold
[2]; [4]
  selectivity α1A vs α1B: >31
[2]; [15]
  Kd: 31600 nM
[3]; Log KD α1D (apparent), app: top concentration inhibited most but not all specific binding, curve extrapolated
  Kd: 219000 ± 5380 nM
[3]; [7]
  Selectivity ratio α1B vs α1D: >4.6 fold

## O=C1CCC(=O)N1C[C@H]1CC[C@H]2CN(c3ncccn3)CCN2C1 [Sunepitron]
[1]; [4]
  selectivity α1B vs α1D: 4.8
[1]; [14]
  Kd: 22400 nM
[2]; [8]
  Selectivity ratio α1A vs α1D: 2.8 fold
[2]; [6]
  Selectivity ratio α1A vs α1B: 13 fold
[2]; [15]
  Kd: 1660 nM
[3]; [16]
  Kd: 4680 nM
[3]; [7]
  Selectivity ratio α1B vs α1D: 4.8 fold
